Test results: patent US10463609B2, “Dendrimers for sustained release of compounds” (WAYNE STATE UNIVERSITY, priority 2007, dated 2019)

Key:
[1] = test system: activated retinal microglial cells; assay: Quantitative histology of activated retinal microglial cells by ED-1 immunolabelling, FA IDDIs in RCS rats; type: in vivo, rat; details: p<0.001
Procedure: FA suppressed neuroinflammation in RCS rats. In examining the mechanism of action of FA in preserving the ONL and ERG in the RCS rat, quantitative histological analysis of activated retinal microglial cells were performed using ED-1 immunolabelling. The photoreceptor layer and outer debris zone in RCS rats contain damaged lipid membranes that amplified photoreceptor damage by activating microglia to become phagocytic and release toxic substances such as tumor-necrosis factor alpha (TNF-α).

RCS rats [2] = assay: ERG b-wave amplitudes, FA IDDIs in RCS rats; type: in vivo, rat
Procedure: In other experiments, fluocinolone acetonide preserved electroretinogram b-wave amplitudes in treated eyes. The ONL data were consistent with ERG findings in the same animals (FIG. 9A). […] Although mean b-wave amplitude values in the eyes treated with FA 0.5 μg/day were quantitatively lower than the values in the eyes treated with FA 0.2 μg/day, there was no statistically significant difference between them (p=0.113).
Quantitatively, the left eye-ERG b-wave amplitudes of the FA 0.2 μg/day-treated group at the four-week time point were greater than those of control right and left eyes and placebo group-right and left eyes. […] The fellow-eye effects were attributed to drug-crossover. This is commonly seen in small mammals in which the volume of distribution is small.

[3] = Drug release from PLGA microspheres; type: physicochemical; details: ~5-10 μm PLGA microspheres containing 5% by mass of FA
Procedure: Drug release from PLGA microspheres was studied as follows. The drug release kinetics for free fluocinolone acetonide was analyzed for the same PLGA microspheres. For ˜5 -10 μm microspheres (containing 5% by mass of FA), the release was ˜0.5 μg/day (average) for the first thirty days, with a cumulative release of ˜30% in one month. There was 3% initial burst in the first three days. For dendrimer-FA conjugates, the initial burst may be capable of elimination due to their relatively larger size.

[4] = Water solubility of the conjugate; type: physicochemical
Text: The glutaric acid spacer relieves the steric hindrance on the dendrimer surface, enabling intracellular drug release.
The filtrate was dialysed against DMSO for three days by replacing DMSO after each day (dialysis membrane cutoff 1000 Da) to remove unreacted compounds. The dialyzed product was dried under vacuum to obtain conjugate. ^1H-NMR was used to characterize the conjugate.

RCS rats [5] = assay: Electroretinography after single intravitreal injection of D-FA or free FA in RCS rats; type: in vivo, rat; details: for ERG a-wave amplitude change, OD / ERG a-wave amplitude change, OS / ERG b-wave amplitude change, OD / ERG b-wave amplitude change, OS: Mean±Standard Error
Procedure: Neuroprotective effects of dendrimer-FA (D-FA) nanodevices were determined as follows. The neuroprotective effects of intravitreally-injected D-FA nanodevices to free-FA injections and IDDIs that release free-FA at a sustained daily rate were compared. […] Here the 1 μg and 3 μg refer to the FA content in D-FA. ONL cell densities were higher for D-FA than those measured for IDDIs and free FA injections.
The efficacy was analyzed using electroretinography (ERG) and histology.
Thirty albino RCS rats aged five weeks were divided into six equal groups. The experiments were terminated at nine weeks. Thus, the efficacy was evaluated over the four-week peak period of retinal degeneration in the RCS rats. The groups were: • 1. intravitreal injection of 3.0 μg dendrimer-conjugated fluocinolone acetonide (FA) in 1.0 μL of Phosphate Buffered Solution (PBS); • 2. intravitreal injection of 1.0 μg dendrimer-conjugated FA in 1.0 μL of PBS; • 3. intravitreal injection of 3.0 μg FA in 1.0 μL of PBS; • 4. intravitreal injection of 1.0 μg FA in 1.0 μL of PBS; • 5. intravitreal injection of 1 μL of PBS (vehicle control); • 6. light-exposed unoperated controls.

RCS rats [6] = assay: Quantitative histology of ONL and INL cells, FA sustained-release intravitreal drug delivery implants (IDDIs) in RCS rats; type: in vivo, rat
Text: According to this Example, the steroid fluocinolone acetonide (FA) was highly neuroprotective in slowing the retinal degeneration of RCS rats when delivered via sustained-release intravitreal drug delivery implants (IDDIs).

[7] = test system: Royal College of Surgeons retinal degeneration model (RCS) rats; assay: Retinal biodistribution after intravitreal injection, epi-fluorescence histology of retinal cryosections, RCS rats; type: in vivo, rat
Text: Retinal biodistribution of free-FITC and dendrimer-conjugated FITC (D-FITC) in healthy Sprague-Dawley (SD) and Royal College of Surgeons retinal degeneration model (RCS) rats with active neuroinflammation was studied. Epi-fluorescence histology from retinal cryosections performed 24-hours and ten days after intravitreal injection is shown in […] as follows.
The first set of results is shown in FIGS. 10A-10F, epi-fluorescence histology from retinal cryosections performed twenty four hours and ten days after intravitreal injection, showing (FIG. 10A) D-FITC distribution in normal SD rats at twenty four hours, and (FIG. 10B) D-FITC distribution in the RCS retinal neurodegeneration model at twenty four hours. The concentration of D-FITC within the outer nuclear layer (denoted by *) and debris zone are significant findings.
The D-FITC localization in the outer-retina was further analyzed by immunohistochemical labeling for activated microglial cells, astrocytes, and Mueller cells and the photoreceptors (as shown in FIGS. 11A-11D, FIGS. 12A-12B, FIGS. 13A-13D, FIG. 14, and FIGS. 15A-15B). […] There was minimal accumulation in the other cells in the inner and outer retina. FIGS. 11A-11D show Microglial uptake of D-FITC. (FIG. 11A) ED-1 immuno-histochemical labeling of inner-retinal microglial cells; (FIG. 11B) D-FITC uptake within inner retinal microglia (60×); (FIG. 11C) outer retinal ED-1 labeled activated microglia; and (FIG. 11D) D-FITC uptake within activated microglia.

[8] = 1.0 μg intravitreal in 1.0 μL PBS, end of study vs beginning
[9] = 3.0 μg intravitreal in 1.0 μL PBS, end of study vs beginning
[10] = FA 0.5 μg/day IDDI, treated eyes, four-week study

CC1(C)O[C@@H]2C[C@H]3[C@@H]4C[C@H](F)C5=CC(=O)C=C[C@]5(C)[C@@]4(F)[C@@H](O)C[C@]3(C)[C@]2(C(=O)CO)O1 [FA, fluocinolone acetonide]
activated microglial cell densities in the debris layer vs eyes with inactive IDDIs ([1]; FA 0.2 μg/day IDDI): nine-fold decrease | activated microglial cell densities in the debris layer vs non-surgical control eyes ([1]; FA 0.2 μg/day IDDI): five-fold decrease | debris zone activated microglial density vs eyes with inactive IDDIs ([1]; FA 0.5 μg/day IDDI): seven times lower | debris zone activated microglial density vs non-surgical control eyes ([1]; FA 0.5 μg/day IDDI): four times lower | mean four-week postoperative ERG b-wave amplitudes, treated eyes (RCS rats [2]; 0.2 μg/day and 0.5 μg/day FA IDDIs, p<0.001): significantly greater than those of the unoperated control and placebo-treated eyes | mean ERG b-wave amplitudes of left (fellow) eyes (RCS rats [2]; FA 0.2 μg/day IDDI group vs placebo-treated or control eyes): No statistically significant differences | mean ERG b-wave amplitudes of left (fellow) eyes (RCS rats [2]; FA 0.5 μg/day IDDI group, four weeks, cross-over effect): significantly different from those of right and left eyes of unoperated control animals | release rate (average) ([3]; first thirty days): ~0.5 µg/day | initial burst ([3]; first three days): 3% | cumulative release ([3]; in one month): ~30% | solubility in water [4]: not water soluble at comparable concentrations | ERG a-wave amplitude change, OD (RCS rats [5]; [8]): −41.9 ± 13.4% | ERG a-wave amplitude change, OS (RCS rats [5]; [8]): −47.8 ± 7.7% | ERG b-wave amplitude change, OD (RCS rats [5]; [8]): −64.2 ± 8.6% | ERG b-wave amplitude change, OS (RCS rats [5]; [8]): −55.6 ± 3.6% | ERG a-wave amplitude change, OD (RCS rats [5]; 3.0 μg intravitreal in 1.0 μL PBS, end of study (9 weeks of age) vs beginning (5 weeks), loss (−)/gain (+) from initial amplitude): −12.5 ± 28.8% | ERG a-wave amplitude change, OS (RCS rats [5]; [9]): −10.5 ± 30.1% | ERG b-wave amplitude change, OD (RCS rats [5]; [9]): −42.6 ± 3.3% | ERG b-wave amplitude change, OS (RCS rats [5]; [9]): −40.8 ± 3.5% | end-point ERG a-wave (photoreceptor response) amplitudes (RCS rats [5]; at nine weeks of age, right vs left eyes): not true | ONL cell densities relative to inactive IDDI group (RCS rats [6]; FA 0.2 μg/day IDDI, treated eyes, four-week study): 4.85±0.24 times | ONL cell densities relative to non-surgical controls (RCS rats [6]; FA 0.2 μg/day IDDI, treated eyes, four-week study, nine-week RCS rats): 2.38±0.12 times | ONL counts relative to eyes that received inactive IDDIs (RCS rats [6]; [10]): 3.56±0.17 times | ONL counts relative to non-surgical control eyes (RCS rats [6]; [10]): 1.78±0.21 times | inner nuclear layer cell counts between groups (RCS rats [6]; FA 0.2 and 0.5 μg/day IDDIs vs inactive implants and non-surgical controls): No significant differences

fluorescein isothiocyanate [Free-FITC]
retinal distribution at 24 hours ([7]; RCS rats, 24 hours after intravitreal injection): uniformly distributed | retinal retention at ten days ([7]; RCS rats, ten days after intravitreal injection): cleared from the retina | FITC fluorescence in the retinal pigment epithelium (RPE) ([7]; after intravitreal injection, 24 hours, similar at ten days): No FITC fluorescence was observed
